# Biological target: T1, Wee1 kinase domain (Homo sapiens, UniProt P30291)
# T1 construct: Wee1 kinase domain was purchased from Carna (catalog #05-177); purchased Carna 05-177
# Experiment: Wee1 Kinase Biochemical Assay (ADP-Glo)
# Settings: 1 nM Wee1 enzyme, 15 uM ATP, 4 hours at 25° C
# How it was run: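 ADP-Glo luminescence readout of ADP produced by 1 nM kinase domain phosphorylating Poly(Lys,Tyr 4:1) (2 ng/mL) at 15 uM ATP. Reaction ran 4 h, 25 °C, in Tris/MgCl2 buffer with BSA and DTT. Inhibition scaled between DMSO (high) and saturating control inhibitor (low).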
# T1 sequence (P30291 299-569 limits assumed): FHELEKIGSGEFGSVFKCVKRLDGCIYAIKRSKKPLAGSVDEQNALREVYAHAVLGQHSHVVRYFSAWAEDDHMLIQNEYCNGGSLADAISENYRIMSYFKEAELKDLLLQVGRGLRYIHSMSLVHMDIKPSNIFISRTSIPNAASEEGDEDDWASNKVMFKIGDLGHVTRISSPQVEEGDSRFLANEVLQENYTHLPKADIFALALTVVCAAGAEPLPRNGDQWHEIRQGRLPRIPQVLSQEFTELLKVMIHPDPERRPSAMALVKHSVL
row,IC50,Compound
1,< 10 nM,"CC(C)n1ccc(Nc2ncc3c(n2)N(c2cccc(N=S(C)(C)=O)n2)[C@@H]2CC(C)(C)OC[C@]32C)n1 (single isomer, unassigned) [Example 832]"

# Same assay, conditions: Wee1 kinase domain, 15 uM ATP, ADP-Glo
row,Compound,IC50
1,"CN1CCC(c2cc(Nc3ncc4c(n3)N(c3cccc(N=S(C)(C)=O)n3)[C@H]3CC(C)(C)OC[C@@]43C)on2)CC1 (single isomer, unassigned) [Example 203]",100 to 1000 nM
2,"Cc1cc(Nc2ncc3c(n2)N(c2cccc(N=S(C)(C)=O)n2)[C@H]2CC(C)(C)OC[C@@]32C)ccc1N1CCN(C)CC1 (single isomer, unassigned) [Example 105]",10 to 100 nM
3,"C[C@H]1COC(=O)N1c1cccc(N2c3nc(N)ncc3[C@@]3(C)COC(C)(C)C[C@@H]23)n1 (single isomer, unassigned) [Example 356]",10 to 100 nM
4,"Cc1cc(Nc2ncc3c(n2)N(c2cccc(N=S(C)(C)=O)n2)[C@H]2CC(C)(C)OC[C@@]32C)ccc1C1CCN(C)CC1 (single isomer, unassigned) [Example 103]",10 to 100 nM
5,"CC1(C)C[C@H]2N(c3cccc(N=S(C)(C)=O)n3)c3nc(Nc4ccc5cnoc5c4)ncc3[C@@]2(C)CO1 (single isomer, unassigned) [Example 381]",< 10 nM
6,"C[C@H]1COC(=O)N1c1cccc(N2c3nc(N)ncc3[C@]3(C)COC(C)(C)C[C@H]23)n1 (single isomer, unassigned) [Example 357]",100 to 1000 nM

# Further lines, results first:
row,IC50,Compound
1,10 to 100 nM,"C[C@H]1COC(=O)N1c1cccc(N2c3nc(Nc4ccc(N5CCNCC5)cc4)ncc3[C@]3(C)COC(C)(C)C[C@H]23)n1 (single isomer, unassigned) [Example 261]"
2,10 to 100 nM,"CN1CCC(c2ccc(Nc3ncc4c(n3)N(c3cccc(N=S(C)(C)=O)n3)[C@@H]3CC(C)(C)OC[C@]43C)cc2)CC1 (single isomer, unassigned) [Example 111]"
3,100 to 1000 nM,"CN1CCC[C@@H]1c1ccc(Nc2ncc3c(n2)N(c2cccc(N=S(C)(C)=O)n2)[C@H]2CC(C)(C)OC[C@@]32C)cc1 (single isomer, unassigned) [Example 128]"
4,100 to 1000 nM,"C[C@H]1COC(=O)N1c1cccc(N2c3nc(Nc4ccc(O[C@@H]5CCNC5)nc4)ncc3[C@]3(C)COC(C)(C)C[C@H]23)n1 (single isomer, unassigned) [Example 286]"
5,< 10 nM,"C[C@H]1COC(=O)N1c1cccc(N2c3nc(Nc4ccc(C5CCN(C)CC5)nc4)ncc3[C@]3(C)COC(C)(C)C[C@H]23)n1 (single isomer, unassigned) [Example 296]"

# Same assay, conditions: class symbols; 1 nM Wee1 enzyme, 15 uM ATP, 4 hours at 25° C.
row,Compound,IC50
1,"CN1C[C@H]2C[C@@H]1CN2c1ccc(Nc2ncc3c(n2)N(c2ccccn2)[C@@H]2CC(C)(C)OC[C@]32C)cc1 [Example 801, (4bR,8aR)-4b,7,7-trimethyl-N-(4-((1R,4R)-5-methyl-2,5-diazabicyclo[2.2.1]heptan-2-yl)phenyl)-9-(pyridin-2-yl)-4b,5,7,8,8a,9-hexahydropyrano[3′,4′:4,5]pyrrolo[2,3-d]pyrimidin-2-amine]",< 10 nM
2,"CN1C[C@H]2C[C@@H]1CN2c1ccc(Nc2ncc3c(n2)N(c2cccc(N4CCCC4=O)n2)[C@H]2CC(C)(C)OC[C@@]32C)cc1F [Example 639, 1-(6-((4bS,8aS)-2-((3-fluoro-4-((1R,4R)-5-methyl-2,5-diazabicyclo[2.2.1]heptan-2-yl)phenyl)amino)-4b,7,7-trimethyl-4b,7,8,8a-tetrahydropyrano[3′,4′:4,5]pyrrolo[2,3-d]pyrimidin-9(5H)-yl)pyridin-2-yl)pyrrolidin-2-one]",10 to 100 nM
3,"CN1CCN(c2ccc(Nc3ncc4c(n3)N(c3cccc(N=S(C)(C)=O)n3)[C@@H]3CC(C)(C)OC[C@]43C)nc2)CC1 (single isomer, unassigned) [Example 510]",< 10 nM
4,"CN[C@@H]1CCc2ccc(N3c4nc(Nc5ccc(N6CCOCC6)cc5)ncc4[C@]4(C)COC(C)(C)C[C@H]34)nc21 (single isomer, unassigned) [Example 554]",100 to 1000 nM
5,"CNCc1cccc(N2c3nc(Nc4ccc(N5C[C@H]6C[C@@H](C5)O6)cc4)ncc3[C@]3(C)COC(C)(C)C[C@H]23)n1 (single isomer, unassigned) [Example 482]",100 to 1000 nM
6,"Cc1cc(Nc2ncc3c(n2)N(c2cccc(N4CCCC4=O)n2)[C@H]2CC(C)(C)OC[C@@]32C)ccc1N1C[C@H]2C[C@@H]1CN2C [Example 659, 1-(6-((4bS,8aS)-4b,7,7-trimethyl-2-((3-methyl-4-((1R,4R)-5-methyl-2,5-diazabicyclo[2.2.1]heptan-2-yl)phenyl)amino)-4b,7,8,8a-tetrahydropyrano[3′,4′:4,5]pyrrolo[2,3-d]pyrimidin-9(5H)-yl)pyridin-2-yl)pyrrolidin-2-one]",10 to 100 nM
7,"Cc1cc(Nc2ncc3c(n2)N(c2cccc(N4CCCC4=O)n2)[C@H]2CC(C)(C)OC[C@@]32C)ccc1N1C[C@@H]2C[C@H]1CN2C [Example 653, 1-(6-((4bS,8aS)-4b,7,7-trimethyl-2-((3-methyl-4-((1S,4S)-5-methyl-2,5-diazabicyclo[2.2.1]heptan-2-yl)phenyl)amino)-4b,7,8,8a-tetrahydropyrano[3′,4′:4,5]pyrrolo[2,3-d]pyrimidin-9(5H)-yl)pyridin-2-yl)pyrrolidin-2-one]",10 to 100 nM
8,"CNCc1cccc(N2c3nc(Nc4ccc(-n5ccnc5)nc4)ncc3[C@]3(C)COC(C)(C)C[C@H]23)n1 (single isomer, unassigned) [Example 467]",≥ 1000 nM

# More lines, now with the values ahead:
row,IC50,Compound
1,10 to 100 nM,"Cc1cc(Nc2ncc3c(n2)N(c2cccc(N4CCOC4=O)n2)[C@H]2CC(C)(C)OC[C@@]32C)ccc1N1C[C@H]2C[C@@H]1CN2C [Example 661, 3-(6-((4bS,8aS)-4b,7,7-trimethyl-2-((3-methyl-4-((1R,4R)-5-methyl-2,5-diazabicyclo[2.2.1]heptan-2-yl)phenyl)amino)-4b,7,8,8a-tetrahydropyrano[3′,4′:4,5]pyrrolo[2,3-d]pyrimidin-9(5H)-yl)pyridin-2-yl)oxazolidin-2-one]"
2,100 to 1000 nM,"CC1(C)C[C@@H]2N(c3cccc(C4CCNCC4)n3)c3nc(Nc4ccc(N5CCOCC5)cc4)ncc3[C@]2(C)CO1 (single isomer, unassigned) [Example 532]"
3,10 to 100 nM,"CC1(C)C[C@@H]2N(c3cccc(N4CCOC4=O)n3)c3nc(Nc4ccc(C5CNC5)cc4)ncc3[C@]2(C)CO1 [Example 667, 3-(6-((4bS,8aS)-2-((4-(azetidin-3-yl)phenyl)amino)-4b,7,7-trimethyl-4b,7,8,8a-tetrahydropyrano[3′,4′:4,5]pyrrolo[2,3-d]pyrimidin-9(5H)-yl)pyridin-2-yl)oxazolidin-2-one]"
4,10 to 100 nM,"CN1CCN(c2ccc(Nc3ncc4c(n3)N(c3cccc(N5CCCC5=O)n3)[C@H]3CC(C)(C)OC[C@@]43C)cc2)CC1 (single isomer, unassigned) [Example 586]"
5,10 to 100 nM,"CN1C[C@@H]2CN(c3ccc(Nc4ncc5c(n4)N(c4cccc(N6CCCC6=O)n4)[C@H]4CC(C)(C)OC[C@@]54C)cc3)C[C@@H]2C1 [Example 695, 1-(6-((4bS,8aS)-4b,7,7-trimethyl-2-((4-((3aR,6aS)-5-methylhexahydropyrrolo[3,4-c]pyrrol-2(1H)-yl)phenyl)amino)-4b,7,8,8a-tetrahydropyrano[3′,4′:4,5]pyrrolo[2,3-d]pyrimidin-9(5H)-yl)pyridin-2-yl)pyrrolidin-2-one]"
6,10 to 100 nM,"CN1CC[C@@H](Oc2ccc(Nc3ncc4c(n3)N(c3cccc(N5CCCC5=O)n3)[C@H]3CC(C)(C)OC[C@@]43C)cc2)C1 [Example 627, 1-(6-((4bS,8aS)-4b,7,7-trimethyl-2-((4-(((R)-1-methylpyrrolidin-3-yl)oxy)phenyl)amino)-4b,7,8,8a-tetrahydropyrano[3′,4′:4,5]pyrrolo[2,3-d]pyrimidin-9(5H)-yl)pyridin-2-yl)pyrrolidin-2-one]"
7,100 to 1000 nM,"CN1CC[C@H]2CN(c3ccc(Nc4ncc5c(n4)N(c4cccc(N6CCCC6=O)n4)[C@H]4CC(C)(C)OC[C@@]54C)cc3)C[C@H]21 [Example 689, 1-(6-((4bS,8aS)-4b,7,7-trimethyl-2-((4-((3aS,6aS)-1-methylhexahydropyrrolo[3,4-b]pyrrol-5(1H)-yl)phenyl)amino)-4b,7,8,8a-tetrahydropyrano[3′,4′:4,5]pyrrolo[2,3-d]pyrimidin-9(5H)-yl)pyridin-2-yl)pyrrolidin-2-one]"
8,10 to 100 nM,"CC1(C)C[C@H]2N(c3cccc([C@@H]4CNCCO4)n3)c3nc(Nc4ccc(N5CCOCC5)cc4)ncc3[C@@]2(C)CO1 [Example 735, (4bR,8aR)-4b,7,7-trimethyl-9-(6-((S)-morpholin-2-yl)pyridin-2-yl)-N-(4-morpholinophenyl)-4b,5,7,8,8a,9-hexahydropyrano[3′,4′:4,5]pyrrolo[2,3-d]pyrimidin-2-amine]"
9,10 to 100 nM,"CC1(C)C[C@@H]2N(c3cccc([C@H]4CNCCO4)n3)c3nc(Nc4ccc(N5CCOCC5)cc4)ncc3[C@]2(C)CO1 [Example 738, (4bS,8aS)-4b,7,7-trimethyl-9-(6-((R)-morpholin-2-yl)pyridin-2-yl)-N-(4-morpholinophenyl)-4b,5,7,8,8a,9-hexahydropyrano[3′,4′:4,5]pyrrolo[2,3-d]pyrimidin-2-amine]"
10,100 to 1000 nM,"CC1(C)C[C@@H]2N(c3cccc(N4CCCC4=O)n3)c3nc(Nc4ccc(O[C@@H]5CCNC5)cc4)ncc3[C@]2(C)CO1 [Example 617, 1-(6-((4bS,8aS)-4b,7,7-trimethyl-2-((4-(((R)-pyrrolidin-3-yl)oxy)phenyl)amino)-4b,7,8,8a-tetrahydropyrano[3′,4′:4,5]pyrrolo[2,3-d]pyrimidin-9(5H)-yl)pyridin-2-yl)pyrrolidin-2-one]"
11,10 to 100 nM,"CN1CC[C@@H](c2ccc(Nc3ncc4c(n3)N(c3cccc(N5CCCC5=O)n3)[C@H]3CC(C)(C)OC[C@@]43C)cc2)C1 [Example 643, 1-(6-((4bS,8aS)-4b,7,7-trimethyl-2-((4-((S)-1-methylpyrrolidin-3-yl)phenyl)amino)-4b,7,8,8a-tetrahydropyrano[3′,4′:4,5]pyrrolo[2,3-d]pyrimidin-9(5H)-yl)pyridin-2-yl)pyrrolidin-2-one]"
